Assay results reported in PubChem BioAssay (NCI).
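The compound was tested at five concentrations on cells cultured in 96-well plates, with a 48-hour exposure period. At the GI50, growth is halved. TGI: concentration producing complete growth inhibition.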

Key:
Test in all cases: DTP human tumour cell line panel, 48 h
[1] = test system: HOP-62 NSCLC
[2] = test system: SF-295 CNS
[3] = test system: SF-268 CNS
[4] = test system: HCC-2998 colon
[5] = test system: HOP-92 NSCLC
[6] = test system: UACC-62 melanoma
[7] = test system: T-47D breast
[8] = test system: K-562 leukemia
[9] = test system: KM12 colon
[10] = test system: U251 CNS
[11] = test system: RXF 393 renal
[12] = test system: SW-620 colon
[13] = test system: CCRF-CEM leukemia
[14] = test system: PC-3 prostate
[15] = test system: NCI/ADR-RES ovarian
[16] = test system: SF-539 CNS
[17] = test system: UO-31 renal
[18] = test system: CAKI-1 renal
[19] = test system: SNB-75 CNS
[20] = test system: MOLT-4 leukemia
[21] = test system: COLO 205 colon
[22] = test system: RPMI-8226 leukemia
[23] = test system: EKVX NSCLC
[24] = test system: HL-60(TB) leukemia
[25] = test system: HCT-15 colon
[26] = test system: SNB-19 CNS
[27] = test system: OVCAR-8 ovarian
[28] = test system: LOX IMVI melanoma
[29] = test system: UACC-257 melanoma
[30] = test system: MDA-MB-231 breast
[31] = test system: SN12C renal
[32] = test system: SK-OV-3 ovarian
[33] = test system: NCI-H460 lung
[34] = test system: MALME-3M melanoma
[35] = test system: MCF7 breast
[36] = test system: IGROV1 ovarian
[37] = test system: SK-MEL-5 melanoma
[38] = test system: DU-145 prostate
[39] = test system: HS 578T breast
[40] = test system: A498 renal
[41] = test system: OVCAR-4 ovarian
[42] = test system: BT-549 breast
[43] = test system: MDA-MB-435
[44] = test system: TK-10 renal
[45] = test system: SR leukemia
[46] = test system: OVCAR-5 ovarian
[47] = test system: NCI-H23 lung
[48] = test system: SK-MEL-28 melanoma
[49] = test system: HCT-116 colon
[50] = test system: ACHN renal
[51] = test system: SK-MEL-2 melanoma
[52] = test system: M14 melanoma
[53] = test system: HT29 colon
[54] = test system: 786-0 renal
[55] = test system: NCI-H522 lung

With `COc1ccc2c(c1)c(CC(=O)[Se]CC#N)c(C)n2C(=O)c1ccc(Cl)cc1` the GI50 [1] was 1.11 µM, the TGI [1] was 3.2 µM and the GI50 [2] was 1.72 µM. The TGI [2] was 4.2 µM, the GI50 [3] was 2.28 µM and the TGI [3] was 5.43 µM. It also gave a GI50 [4] of 1.79 µM, a TGI [4] of 3.5 µM and a GI50 [5] of 1.75 µM. It also gave a TGI [5] of 4.7 µM, a GI50 [6] of 2.16 µM and a TGI [6] of 5.56 µM. For the same compound, the GI50 [7] was 2.29 µM, the TGI [7] was 6.15 µM and the GI50 [8] was 3.17 µM. For the same compound, the TGI [8] was > 100 µM, the GI50 [9] was 1.46 µM and the TGI [9] was 3.16 µM. For the same compound, the GI50 [10] was 2.29 µM, the TGI [10] was 6.35 µM and the GI50 [11] was 1.65 µM. For the same compound, the TGI [11] was 3.37 µM, the GI50 [12] was 1.73 µM and the TGI [12] was 3.99 µM. For the same compound, the GI50 [13] was 2.6 µM, the TGI [13] was > 100 µM and the GI50 [14] was 2.26 µM. It also gave a TGI [14] of 7.88 µM, a GI50 [15] of 2.42 µM and a TGI [15] of 6.97 µM. It also gave a GI50 [16] of 2.04 µM, a TGI [16] of 4.43 µM and a GI50 [17] of 1.18 µM. It also gave a TGI [17] of 3.94 µM, a GI50 [18] of 1.78 µM and a TGI [18] of 3.53 µM. The GI50 [19] was 1.91 µM, the TGI [19] was 5.75 µM and the GI50 [20] was 3.37 µM. The TGI [20] was > 100 µM, the GI50 [21] was 1.59 µM and the TGI [21] was 3.1 µM. For the same compound, the GI50 [22] was 3.04 µM, the TGI [22] was 10.6 µM and the GI50 [23] was 1.42 µM. The TGI [23] was 3.45 µM, the GI50 [24] was 2.95 µM and the TGI [24] was > 100 µM. The GI50 [25] was 1.2 µM, the TGI [25] was 3 µM and the GI50 [26] was 3.81 µM. The TGI [26] was 14.6 µM, the GI50 [27] was 1.86 µM and the TGI [27] was 3.86 µM. It also gave a GI50 [28] of 1.91 µM, a TGI [28] of 4.12 µM and a GI50 [29] of 2.1 µM. It also gave a TGI [29] of 5.19 µM, a GI50 [30] of 2.2 µM and a TGI [30] of 6.6 µM. It also gave a GI50 [31] of 3.62 µM, a TGI [31] of 12.7 µM and a GI50 [32] of 2.77 µM. The TGI [32] was 8.16 µM, the GI50 [33] was 1.97 µM and the TGI [33] was 5.47 µM. It also gave a GI50 [34] of 1.94 µM, a TGI [34] of 5.21 µM and a GI50 [35] of 2.02 µM. For the same compound, the TGI [35] was 4.9 µM, the GI50 [36] was 1.7 µM and the TGI [36] was 3.82 µM. For the same compound, the GI50 [37] was 1.78 µM, the TGI [37] was 3.23 µM and the GI50 [38] was 1.79 µM. For the same compound, the TGI [38] was 3.48 µM, the GI50 [39] was 2.62 µM and the TGI [39] was 8.91 µM. It also gave a GI50 [40] of 2.04 µM, a TGI [40] of 4.75 µM and a GI50 [41] of 2.18 µM. The TGI [41] was 5.82 µM, the GI50 [42] was 2.05 µM and the TGI [42] was 4.68 µM. It also gave a GI50 [43] of 1.79 µM, a TGI [43] of 3.44 µM and a GI50 [44] of 2.66 µM. For the same compound, the TGI [44] was 7.09 µM, the GI50 [45] was 2.27 µM and the TGI [45] was > 100 µM. The GI50 [46] was 1.92 µM, the TGI [46] was 4.03 µM and the GI50 [47] was 2.36 µM. It also gave a TGI [47] of 6.19 µM, a GI50 [48] of 2.38 µM and a TGI [48] of 6.92 µM. The GI50 [49] was 0.359 µM, the TGI [49] was 1.27 µM and the GI50 [50] was 2.11 µM. It also gave a TGI [50] of 5.61 µM, a GI50 [51] of 1.99 µM and a TGI [51] of 4.5 µM. For the same compound, the GI50 [52] was 1.43 µM, the TGI [52] was 3.02 µM and the GI50 [53] was 2.01 µM. It also gave a TGI [53] of 5.03 µM, a GI50 [54] of 1.88 µM and a TGI [54] of 3.61 µM. It also gave a GI50 [55] of 2.07 µM and a TGI [55] of 4.52 µM.
